From patent EP0252983B1, “SALTS OF N-(VINYLOXIETHYL)DITHIOCARBAMIC ACID, METHOD OF OBTAINING THEREOF AND […] ON THEM” (priority 1985, dated 1987)

Experiments:
Penicillium funiculosum = experiment: Mycelial growth inhibition on agar (contact activity); assay type: cell-based
Description: (§1) Die Prüfungen werden nach dem Verfahren zur Ermittlung der Kontaktaktivität durchgeführt. Man verwendet das in Wasser gelöste Kalium-N-(vinyloxyäthyl)dithiocarbamat, führt es in ein Nährmedium ein und vergießt auf Petri-Schalen. Nach 24 Stunden wird mit Pilzmyzelium nach einem Stichverfahren geimpft. Dann temperiert man die Schalen innerhalb von 5 Tagen bei einer zwischen 24 und 26 °C liegenden Temperatur und mißt den Durchmesser von Pilzkolonien, ermittelt den Prozentsatz der Hemmung des Myzelwachstums (S) ausgehend von Angaben am 5. Tag nach der Abbott-Formel [drawing 13] worin dc für den Durchmesser der Pilzkolonien, de für den Durchmesser von Pilzkolonien in der Schale stehen, wo ein die zu prüfenden Stoffe enthaltendes Medium vorhanden ist. Dieses Verfahren zur Ermittlung der mikrobiologischen Aktivität ist in anderen Beispielen verwendet.

Stereum hirsutum = experiment: as above; assay type: cell-based; conditions: Stereum hirsutum, 120 h; Wirkstoffkonzentration 0,003 %; Tabelle 3; read-out: Mycelhemmung, in %
Description: as §1

Chaetomium globosum = experiment: as above; assay type: cell-based
Description: as §1

Paecilomyces varioti = experiment: as above; assay type: cell-based; conditions: Paecilomyces, 120 h; Wirkstoffkonzentration 0,003 %; Tabelle 3; read-out: Mycelhemmung, in %
Description: as §1

[1] = Storage stability (descriptive); assay type: physicochemical
Acremonium cowum = experiment: Mycelial growth inhibition on agar (contact activity); assay type: cell-based; conditions: 120 h, Würzeagar, read-out: Myzelhemmung in %
[2] = system: Wurzelschimmelkomplex von Gewächshausgurken; experiment: Greenhouse trial against cucumber root mould complex (200 m^2); assay type: in vivo
Text: Kalium-N-(vinyloxyäthyl)dithiocarbamat wurde gegen Wurzelschimmelkomplex von Gewächshausgurken auf einer Fläche von 200 m^2 und 1 ha geprüft. Die auf einer 200 m^2 großen Fläche durchgeführten Prüfungen haben gezeigt, daß Kalium-N-(vinyloxyäthyl)dithiocarbamat die 100%ige Unterdrückung von Erregern der Pythium-Fäule und der begleitenden Gurkenwurzelschimmeln bewirkt. Der Ernteertrag steigt dabei durch Bodenbehandlung um 4,2 kg/m^2 gegenüber Kontrolle (ohne Wirkstoffgabe ist der Ertrag 10 kg/m^2 und um 1,6 kg/m^2 gegenüber Fundazol an.

Fusarium sambucinum = experiment: Mycelial growth inhibition on agar (contact activity); assay type: cell-based; conditions: Fusarium sambucinum, 120 h, Kartoffel-Glukose-Nährmedium, read-out: Myzelhemmung in %
Verticillium dahliae = experiment: as above; assay type: cell-based; conditions: 120 h, Kartoffel-Glukose-Nährmedium, read-out: Myzelhemmung in %
Procedure, shortened: (§2)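 Compound dissolved in water and mixed into potato-glucose agar poured into dishes. Mycelium stab-inoculated after 24 h, then incubated 5 days at 24–26 °C. Colony diameters measured on day 5, and % mycelial growth inhibition calculated by Abbott's formula.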

Botrytis cinerea = experiment: as above; assay type: cell-based; conditions: 120 h, Kartoffel-Glukose-Nährmedium, read-out: Myzelhemmung in %
Procedure, shortened: as §2

Venturia inaegualis = experiment: as above; assay type: cell-based; conditions: 120 h, Kartoffel-Glukose-Nährmedium, read-out: Myzelhemmung in %
Procedure, shortened: as §2

Fusarium moniliforme = experiment: as above; assay type: cell-based; conditions: Fusarium verticillioides, 120 h, Kartoffel-Glukose-Nährmedium, read-out: Myzelhemmung in %
Larven von Fichtenböcken = experiment: Insecticidal activity, topical application to larvae; assay type: in vivo, Fichtenböcke; conditions: 10%ige Lösung
Text: Die hohe insektizide Aktivität von Kalium-N-(vinyloxyathyl)dithiocarbamat und Zink-bis-(N-vinyloxyathyl- dithiocarbamat) wurde in Versuchen an Larven von Fichtenböcken nachgewiesen. Geprüft wurden die 10%igen wäßrigen (oder alkoholischen) Lösungen, welche auf die Kopfbrust von Larven aufgebracht wurden. In Versuchen standen je 20 Larven zur Verfügung. Die Versuche wurden dreimal wiederholt. Die Mortalität wurde nach 1, 24 und 48 Stunden ermittelt. Die insektizide Aktivität der erfindungsgemäßen Stoffe ist bedeutend höher als die von Chlorophos.
Die Prüfungen auf insektizide Aktivität werden an Larven von Fichtenböcken durchgeführt. Geprüft werden eine 10%ige wäßrige Lösung von Kalium-N-(vinyloxyäthyl)dithiocarbamat und eine 10%ige alkoholische Lösung von Zink-bis-N-(vinyloxyathyldithiocarbamat). In jedem Versuch stehen je 20 Larven zur Verfügung. Die Mortalität wird nach 1, 24 und 48 Stunden ermittelt. Die zu prüfenden Lösungen werden auf die Kopfbrust von Larven aufgebracht.

Helminthosporium sativum = experiment: Barley seed dressing against root rot (helminthosporiosis); assay type: in vivo; conditions: Aufwandmenge von 1 g/kg
Description: Die Aktivität der Verbindung gegen Wurzelfäule (Helminthosporiose) der Gerste wurde unter Laborbedingungen untersucht. Gerstensamen, infiziert mit einer 7 Tage alten Pizkultur Helminthosporium sativum, wurden durch Präparaten ausgehend von 1 g Präparat (bezogen auf den Wirkstoff) je 1 kg Samen nach einem halbtrockenen Verfahren gebeizt, in Aufzuchträume mit befeuchtetem Sand gesät und innerhalb von 11 bis 14 Tagen bei einer zwischen 20 und 22 °C gehalten. Am 14 Tag schätzte man die Keimfähigkeit von Gerstensamen ein und ermittelte die Quote von durch Helminthosporiose befallenen Pflanzen. Die Prüfergebnisse sind in der Tabelle 4 dargestellt.

Acremonium charticola = experiment: Mycelial growth inhibition on agar (contact activity); assay type: cell-based; conditions: Acremonium charticola, 120 h; Präparatkonzentration 0,0015 %; Würzeagar; read-out: Myzelhemmung in %
[3] = Acute toxicity (LD50) in mice; assay type: in vivo, weißen Mäusen; conditions: mouse, in vivo, po; perorale Applikation an weißen Mäusen; read-out: LD50
[4] = system: Cladosporium cladosporioides; experiment: Mycelial growth inhibition on agar (contact activity); assay type: cell-based; conditions: Cladosporium cladosporioides, 120 h; Präparatkonzentration 0,006 %; Würzeagar; read-out: Myzelhemmung in %

C=COCCNC(=S)S [Kalium-N-(vinyloxyäthyl)dithiocarbamat]
inhibition of growth at 0.003 % (Penicillium funiculosum; Talaromyces funiculosus, 120 h, Wirkstoffkonzentration 0,003 %, Tabelle 3, read-out: Mycelhemmung, in %): 100%
Aktivität übersteigt Salizylanilid (Vergleichsmuster) (Penicillium funiculosum; gegen Myzelium von Penicillium funiculosum): 10%
inhibition of growth at 0.003 % (Stereum hirsutum): 100%
inhibition of growth at 0.003 % (Chaetomium globosum; Chaetomium globosum, 120 h, Wirkstoffkonzentration 0,003 %, Tabelle 3, read-out: Mycelhemmung, in %): 100%
Aktivität übersteigt Polykarbazin (Vergleichsmuster) (Chaetomium globosum; gegen das Myzelium der Pilze Chaetomium globosum): 10%
inhibition of growth at 0.003 % (Paecilomyces varioti): 100%
Lagerbeständigkeit [1]: lagerbeständig
inhibition of growth at 0.003 % (Acremonium cowum; Präparatkonzentration 0,003 %): 100%
inhibition of growth at 0.006 % (Acremonium cowum; Präparatkonzentration 0,006 %): 100%
Unterdrückung von Erregern der Pythium-Fäule und der begleitenden Gurkenwurzelschimmeln ([2]; 200 m^2 große Fläche): 100%
Ernteertrag steigt gegenüber Fundazol ([2]; Bodenbehandlung, 200 m^2): 1,6 kg/m^2
Ernteertrag steigt gegenüber Kontrolle ([2]; Bodenbehandlung, 200 m^2, Kontrolle 10 kg/m^2): 4,2 kg/m^2
inhibition of growth at 0.01 % (Fusarium sambucinum; Wirkstoffkonzentration 0,01 %): 100%
inhibition of growth at 0.003 % (Fusarium sambucinum; Wirkstoffkonzentration 0,003 %): 100%
inhibition of growth at 0.01 % (Verticillium dahliae; Wirkstoffkonzentration 0,01 %): 100%
inhibition of growth at 0.003 % (Verticillium dahliae; Wirkstoffkonzentration 0,003 %): 100%
inhibition of growth at 0.01 % (Botrytis cinerea; Wirkstoffkonzentration 0,01 %): 100%
inhibition of growth at 0.003 % (Botrytis cinerea; Wirkstoffkonzentration 0,003 %): 100%
inhibition of growth at 0.01 % (Venturia inaegualis; Wirkstoffkonzentration 0,01 %): 100%
inhibition of growth at 0.003 % (Venturia inaegualis; Wirkstoffkonzentration 0,003 %): 100%
inhibition of growth at 0.01 % (Fusarium moniliforme; Wirkstoffkonzentration 0,01 %): 100%
inhibition of growth at 0.003 % (Fusarium moniliforme; Wirkstoffkonzentration 0,003 %): 100%
Mortalität von Larven der Fichtenböcke (Larven von Fichtenböcken; Wirkungsdauer 1 Stunde): 20%
Mortalität von Larven der Fichtenböcke (Larven von Fichtenböcken; Wirkungsdauer 24 Stunden): 100%
Mortalität von Larven der Fichtenböcke (Larven von Fichtenböcken; Wirkungsdauer 48 Stunden): 100%
Wirksamkeit als Beizmittel gegenüber Vergleichsmuster (TMTD und Polykarbazin) (Helminthosporium sativum): zweimal wirksamer
inhibition of growth at 0.0015 % (Acremonium charticola): 100%
LD50 [3]: 1400 ± 350 mg/kg
inhibition of growth at 0.006 % [4]: 100%
